# Columns and labels:
# Assay type in all cases: biochemical
# [1] = target: T1, phosphorylated human α2β2γ1 complex (WT) (Homo sapiens, UniProt P54619+P54646); assay: AMPK inactivation and Thr172 dephosphorylation by PP2Cα (PPM1A), WT; conditions: 300 µM nucleotide, absence of ATP
# T1 construct: made in house; host or cells: Escherichia coli
# Experimental: (§1) The relative roles of the three CBS sites in the other two mechanisms of activation of AMPK by AMP or ADP, i.e. promotion of Thr172 phosphorylation by LKB1, and protection against Thr172 dephosphorylation by protein phosphatases, have not been examined previously. As expected, incubation of the α2β2γ1 AMPK complex with a fixed, limiting amount of purified LKB1:STRADα:MO25α complex in the presence of 200 µM Mg.ATP^2− caused a large degree of activation (Figure 5A) and phosphorylation (Figure 5B) of AMPK (unphosphorylated α2β2γ1 complex), which were stimulated more than 2-fold by 300 µM AMP and 1.6-fold by 300 µM ADP.
# (§2) Figure 6. Effects of AMP or ADP on AMPK inactivation and Thr172 dephosphorylation by PP2Cα (PPM1A). Human α2β2γ1 complexes (WT, or with L129D/V130D, V276G/L277G or I312G mutations affecting CBS1, CBS3 or CBS4 respectively), all phosphorylated on Thr172, were incubated with a fixed concentration of PP2Cα (PPM1A) in the presence or absence of AMP or ADP (both 300 µM) as described in the Materials and methods section. After the incubation, aliquots were withdrawn for (A) AMPK assay or (B) Western blots. […] For (B), due to a limit on the number of lanes that could be run on one gel, single replicates from the triplicate assays were analysed. […]
# [2] = target: T2, human α2β2γ1 complex, CBS3 mutant (V276G/L277G) (Homo sapiens, UniProt P54619+P54646, L277G/V276G); assay: AMPK inactivation and Thr172 dephosphorylation by PPM1A, CBS3 mutant; conditions: 300 µM nucleotide, absence of ATP
# T2 construct: made in house; host or cells: Escherichia coli
# Experimental: as §1, §2
# [3] = target: T2, human α2β2γ1 complex, CBS3 mutant (V276G/L277G); assay: AMPK activation and Thr172 phosphorylation by the LKB1 complex, CBS3 mutant; conditions: 300 µM nucleotide, 200 µM ATP
# Experimental: as §1
# Figure 5. Effects of AMP or ADP on AMPK activation and Thr172 phosphorylation by the LKB1:STRADα:MO25α complex. Unphosphorylated human α2β2γ1 complexes (WT, or with L129D/V130D, V276G/L277G or I312G mutations affecting CBS1, CBS3 or CBS4 respectively) were incubated with ATP and a fixed concentration of the LKB1:STRADα:MO25α complex in the presence or absence of AMP or ADP (both 300 µM), as described in the Materials and methods section. After the incubation aliquots were withdrawn for (A) AMPK assay or (B) Western blots. […] For (B), due to a limit on the number of lanes that could be run on one gel, single replicates from the triplicate assays were analysed. […]
# T2 sequence (P54619 whole entry V276G/L277G): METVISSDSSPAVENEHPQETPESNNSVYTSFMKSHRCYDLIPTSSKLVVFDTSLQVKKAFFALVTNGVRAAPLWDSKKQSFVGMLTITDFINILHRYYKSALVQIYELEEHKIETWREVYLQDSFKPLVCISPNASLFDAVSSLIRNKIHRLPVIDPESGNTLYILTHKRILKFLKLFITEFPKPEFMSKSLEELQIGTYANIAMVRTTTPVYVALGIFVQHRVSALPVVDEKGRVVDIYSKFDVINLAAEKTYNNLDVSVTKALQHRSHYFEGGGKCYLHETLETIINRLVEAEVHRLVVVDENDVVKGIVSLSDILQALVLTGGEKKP
# T2 sequence (P54646 whole entry): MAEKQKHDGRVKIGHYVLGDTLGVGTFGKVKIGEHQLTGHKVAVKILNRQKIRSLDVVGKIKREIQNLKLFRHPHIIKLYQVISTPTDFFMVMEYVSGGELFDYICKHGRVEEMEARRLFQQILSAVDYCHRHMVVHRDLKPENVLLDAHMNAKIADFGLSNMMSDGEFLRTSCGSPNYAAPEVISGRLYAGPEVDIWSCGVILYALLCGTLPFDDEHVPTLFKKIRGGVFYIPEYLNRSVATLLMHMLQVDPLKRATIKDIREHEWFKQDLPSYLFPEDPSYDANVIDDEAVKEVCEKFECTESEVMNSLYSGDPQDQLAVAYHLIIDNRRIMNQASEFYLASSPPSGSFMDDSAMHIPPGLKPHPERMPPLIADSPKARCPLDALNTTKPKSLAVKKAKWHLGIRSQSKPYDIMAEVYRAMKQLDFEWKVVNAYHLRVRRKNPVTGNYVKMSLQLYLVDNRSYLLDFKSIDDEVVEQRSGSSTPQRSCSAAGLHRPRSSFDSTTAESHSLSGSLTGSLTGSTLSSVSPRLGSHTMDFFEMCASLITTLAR
# T2 sequence (O43741 whole entry partner): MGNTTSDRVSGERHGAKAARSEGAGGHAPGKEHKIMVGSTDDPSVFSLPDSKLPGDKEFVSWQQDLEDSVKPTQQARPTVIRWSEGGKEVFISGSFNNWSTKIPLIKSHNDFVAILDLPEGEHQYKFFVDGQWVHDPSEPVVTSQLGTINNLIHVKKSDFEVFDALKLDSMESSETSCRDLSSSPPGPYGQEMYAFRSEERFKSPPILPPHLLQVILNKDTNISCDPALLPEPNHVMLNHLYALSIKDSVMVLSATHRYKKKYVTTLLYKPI
# T1 sequence (P54619 whole entry): as the sequence (P54619 whole entry V276G/L277G) above, with G276V, G277L counted along it
# T1 sequence (P54646 whole entry): as the sequence (P54646 whole entry) above
# T1 sequence (O43741 whole entry partner): as the sequence (O43741 whole entry partner) above
smiles,measurement,setting,value
Nc1ncnc2c1ncn2[C@@H]1O[C@H](COP(=O)(O)O)[C@@H](O)[C@H]1O [AMP],inactivation and dephosphorylation of AMPK by PPM1A in the presence of nucleotide,[1],greatly reduced
same,protective effect of nucleotide against PPM1A in the mutant,[2],almost completely abolished
same,effect of nucleotide on activation/phosphorylation by LKB1 in the mutant,[3],abolished
Nc1ncnc2c1ncn2[C@@H]1O[C@H](COP(=O)(O)OP(=O)(O)O)[C@@H](O)[C@H]1O [ADP],inactivation and dephosphorylation of AMPK by PPM1A in the presence of nucleotide,[1],greatly reduced
same,protective effect of nucleotide against PPM1A in the mutant,[2],almost completely abolished
same,effect of nucleotide on activation/phosphorylation by LKB1 in the mutant,[3],abolished

# From PMC11088877, “AMP-activated protein kinase can be allosterically activated by ADP but AMP remains the key activating ligand” (Biochemical Journal, 2024)
